Assay [1] deals with tenascin-C mRNA expression in cultured rat cardiac endothelial cells. Nature of the assay: PCR analysis of tenascin-C mRNA expression in cultured cardiac endothelial cells treated with PDGF. The format is cell-based. As to conditions: data not shown. The method, then:
Tenascin-C expression was induced by PDGF during in vitro studies in rat aortic smooth muscle cells. […] Control cells received no PDGF. Cardiac endothelial cells from young (4-month old) and old (24-month old) rat hearts were tested. The number of treated and non-treated cultures tested was two (n=2 per group). Tenascin-C expression was higher in PDGF-treated cells and in younger (4 month old) as opposed to older ([…]) cultures of rat cardiac endothelial cells.

Assay [2] deals with tenascin-C expression in the heart. In words: Immunohistochemical analysis of heart sections after intramyocardial PDGF injection. Format: in vivo, rat. As to conditions: rats, 24 h, immunohistochemistry, data not shown. The method, then: Cardiac injections of PDGF ligand were performed as described in Xaymardan et al., Senescent impairment in synergistic cytokine pathways that provide rapid cardioprotection in the rat heart. J Exp Med, 199(6): p. 797-804 (2004). Briefly, rats were anesthetized, an intercostal thoracotomy was performed and then the rats received intramyocardial injections of PDGF-AB (100 ng/50 μl PBS) at the anterior wall of the myocardium (two 25 μl injections, 2 mm apart) through a 28 gauge needle. The chest wall was closed, the lungs inflated and the rats were extubated. Twenty-four hours later, the rats were sacrificed and the hearts were harvested for paraffin embedding and sectioning, using standard techniques.
(§1) The following primary antibodies were used for immunostaining histological sections: anti-tenascin-C (Santa Cruz Biotechnology, California), anti-pIII (Mobitec, Germany), anti-β-galactosidase (Biogenesis, U.K.), anti-PDGFRα (Santa Cruz Biotechnology). For consistency, sections for all analyses were selected from the mid-papillary region of the ventricles. Primary antibodies were labeled with biotin and visualized with Texas Red- and FITC-conjugated avidin (Vector Labs, California).

For assay [3], the system named is rat cardiac microvascular endothelial cells. Nature of the assay: In vitro cell adhesion and spreading analysis on coated substrates. The format is cell-based. Particulars: for cells that failed to attach to the substrate: within 10 min of plating. The method, then:
(§2) Rat cardiac microvascular endothelial cells were isolated from 3-month-old rats according to the method of Nishida et al. (1995). Cells were cultured on either collagen-coated or tenascin-C-coated (10 μg/ml) 8-well chamber slides (Nunc Nalge International, Illinois.) in minimal media (5% fetal bovine serum, 1% penicillin, 1% streptomycin in Dulbecco's modified Eagle's medium) for up to 48 hours and photographed daily. […] For migration analysis, cells were covered with 300 μl of collagen gel (Chemicon, California) after 3 h of culture on 10 μg/ml collagen or tenascin-C. The gel was allowed to polymerize for 1 hour at 37° C. and 200 μl of minimal media containing VEGF or PDGF (5 ng/ml) or no growth factor was added to the wells. Cells were incubated for up to 48 h, and analyzed for peak migration rates using an inverted microscope (Nikon, Japan): migratory distance of the 5 cells that had migrated furthest through the Z-axis of the gel was determined using the Z-plane focus knob of the microscope. Each experiment was repeated 4 times.
The role of tenascin-C in the regulation of cardiac angiogenesis, endothelial cell phenotype and behavior was further analyzed by observing whether tenascin-C influenced cell adhesion. Cardiac endothelial cells were isolated from young hearts and cultured on either tenascin-C or collagen at a concentration of 10 μg/ml. […] Thus, it appeared that tenascin-C has a short-term anti-adhesive effect on cardiac endothelial cells. […] After 3 h of culture, 99% of cells were attached to the collagen substrate, while approximately 10% of cells on tenascin-C still fail to adhere in this time. Thus, tenascin-C can mediate endothelial cell attachment but, at least within the first few hours of endothelial cell binding to tenascin-C, this attachment is weak and cells maintain a rounded phenotype.
The time period and substrate concentration effects upon cell attachment were further examined by plating rat microvascular endothelial cells on various concentrations (1 μg/ml, 10 μg/ml and 100 μg/ml) of collagen and tenascin-C and observing the attachment of cells to these substrates. As shown in FIGS. 6A-C, within 3 hr, cells on collagen were well attached and beginning to spread into a monolayer. In contrast, cells plated on tenascin-C for 3 hr remained rounded, especially when higher concentrations of tenascin-C were used (FIGS. 6D-F).

The test system is the same in assay [4]. In words: Three-dimensional migration assay through collagen gel. The format is cell-based. Particulars: cells cultured 3 h on substrate 10 μg/ml, 48 hours; for increase of peak migration distance in response to PDGF compared to absence of growth factors: PDGF 5 ng/ml; for increase of peak migration distance in response to VEGF compared to absence of growth factors: VEGF 5 ng/ml. The method, then:
as §2
A three-dimensional assay system was developed in which cardiac endothelial cells were cultured on either collagen or tenascin-C for 3 h, and then migration through a collagen gel was analyzed in response to PDGF, VEGF, or the absence of angiogenic growth factors (FIGS. 8A, B). After 48 hours, peak migration distances through the Z-axis of the gel were determined (FIG. 8C).

Assay [5] deals with T1, tenascin-C in the cardiac vasculature (Mus musculus, UniProt Q80YX1).
T1 construct: from tissue; host or cells: heart (cardiac vasculature) of phage-injected animals, paraffin sections
T1 sequence (Q80YX1 23-2110): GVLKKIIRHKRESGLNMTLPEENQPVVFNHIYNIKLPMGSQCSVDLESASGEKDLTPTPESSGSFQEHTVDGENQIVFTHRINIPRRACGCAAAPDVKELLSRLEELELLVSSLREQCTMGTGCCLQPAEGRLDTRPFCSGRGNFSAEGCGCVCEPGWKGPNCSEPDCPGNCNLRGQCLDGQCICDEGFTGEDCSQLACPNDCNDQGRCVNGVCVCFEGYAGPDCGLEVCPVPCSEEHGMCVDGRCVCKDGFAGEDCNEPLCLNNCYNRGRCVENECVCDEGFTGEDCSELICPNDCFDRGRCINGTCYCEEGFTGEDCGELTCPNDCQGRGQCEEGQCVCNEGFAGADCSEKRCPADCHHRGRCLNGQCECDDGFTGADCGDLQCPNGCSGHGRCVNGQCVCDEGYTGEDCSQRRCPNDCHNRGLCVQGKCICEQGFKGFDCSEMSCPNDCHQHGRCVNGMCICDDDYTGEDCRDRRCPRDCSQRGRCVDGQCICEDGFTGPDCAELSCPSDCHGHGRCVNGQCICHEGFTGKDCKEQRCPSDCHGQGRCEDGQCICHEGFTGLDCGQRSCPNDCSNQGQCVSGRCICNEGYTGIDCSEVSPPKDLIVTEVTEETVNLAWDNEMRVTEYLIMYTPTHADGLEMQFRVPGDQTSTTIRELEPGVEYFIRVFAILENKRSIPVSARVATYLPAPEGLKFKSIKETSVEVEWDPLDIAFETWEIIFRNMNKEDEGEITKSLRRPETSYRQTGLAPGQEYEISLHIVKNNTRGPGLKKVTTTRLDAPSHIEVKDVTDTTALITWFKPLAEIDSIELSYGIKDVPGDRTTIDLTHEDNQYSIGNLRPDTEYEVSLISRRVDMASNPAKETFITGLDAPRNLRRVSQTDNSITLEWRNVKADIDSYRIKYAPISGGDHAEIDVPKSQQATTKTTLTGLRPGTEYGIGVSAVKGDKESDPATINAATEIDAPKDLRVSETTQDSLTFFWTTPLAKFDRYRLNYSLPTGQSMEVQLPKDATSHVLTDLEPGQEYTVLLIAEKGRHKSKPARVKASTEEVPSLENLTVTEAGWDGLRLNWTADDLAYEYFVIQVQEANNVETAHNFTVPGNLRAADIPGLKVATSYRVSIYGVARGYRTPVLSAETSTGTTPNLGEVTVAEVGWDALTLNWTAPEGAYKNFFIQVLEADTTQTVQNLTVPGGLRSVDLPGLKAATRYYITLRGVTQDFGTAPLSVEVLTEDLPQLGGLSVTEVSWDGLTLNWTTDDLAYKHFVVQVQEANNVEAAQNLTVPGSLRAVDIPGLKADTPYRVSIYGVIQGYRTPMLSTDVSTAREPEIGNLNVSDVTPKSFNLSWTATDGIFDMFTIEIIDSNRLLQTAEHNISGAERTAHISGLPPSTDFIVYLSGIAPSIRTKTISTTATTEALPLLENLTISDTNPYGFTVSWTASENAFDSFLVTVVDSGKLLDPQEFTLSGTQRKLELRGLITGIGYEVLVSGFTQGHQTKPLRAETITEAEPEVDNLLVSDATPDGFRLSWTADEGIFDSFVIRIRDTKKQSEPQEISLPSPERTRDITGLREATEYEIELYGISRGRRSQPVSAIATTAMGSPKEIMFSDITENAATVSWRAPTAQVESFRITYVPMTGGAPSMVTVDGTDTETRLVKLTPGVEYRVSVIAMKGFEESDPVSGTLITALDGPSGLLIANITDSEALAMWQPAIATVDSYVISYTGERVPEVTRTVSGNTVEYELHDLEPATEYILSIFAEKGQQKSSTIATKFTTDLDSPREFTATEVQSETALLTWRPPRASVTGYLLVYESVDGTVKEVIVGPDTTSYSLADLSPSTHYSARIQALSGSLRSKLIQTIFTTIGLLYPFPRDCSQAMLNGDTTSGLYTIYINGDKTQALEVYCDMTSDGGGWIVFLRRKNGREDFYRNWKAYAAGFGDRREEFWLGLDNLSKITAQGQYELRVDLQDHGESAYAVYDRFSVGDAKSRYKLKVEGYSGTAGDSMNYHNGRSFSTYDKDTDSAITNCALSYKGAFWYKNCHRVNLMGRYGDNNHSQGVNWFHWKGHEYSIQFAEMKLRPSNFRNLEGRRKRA
Nature of the assay: Immunostaining of heart sections for phage coat protein pIII and tenascin-C. Format: in vivo. Particulars: rodent heart after phage injection.
From the text: For immunohistochemical analysis of phage binding, hearts were harvested after phage injection, and then prepared for paraffin embedding and sectioning using standard histochemical procedures.
as §1
To investigate whether tenascin is an in vivo receptor for ψR3Y32, expression of tenascin-C as well as its relationship to phage binding sites was analyzed in the rodent heart. […] Co-staining for tenascin-C and the nuclear marker 4,6-diamidino-2-phenylindole (DAPI) further confirmed that tenascin-C is expressed on the luminal surface of cardiac vessels, and therefore may act at sites of endothelial cell/EPC cell incorporation during vascular remodeling (FIG. 3D).

Assay [6] deals with cardiac vasculature of young (3-month-old) and old (18-month-old) murine hearts. Nature of the assay: In vivo phage binding in heart after tail vein injection, quantified by phage titering. Particulars: individual tail vein injection; 3-month-old vs 18-month-old mice; titers of phage eluted from hearts. The method, then:
To identify young-specific bone marrow-homing phage, a phage library encoding a cyclically constrained seven amino acid variable region (New England Biolabs, Massachusetts) was injected into young (3 month) and old (18-month) adult mice, using methods described in Cai, D., et al., Age-associated impairment in TNF-alpha cardioprotection from myocardial infarction. Am J Physiol Heart Circ Physiol, 2003. 285(2): p. H463-69. Phage clones were selected for sequencing from phage pools eluted from young rather than old bone marrow. To confirm that these clones preferentially bound to young bone marrow, the clones were injected individually into young and old mice and young bone marrow-specific clones were re-selected from the young mouse's bone marrow. Young bone marrow-homing phage were then analyzed for cardiac binding to identify phage epitopes that preferentially bound to young cardiac vasculature as well as young bone marrow. The number of bound phage recovered per mg of tissue was quantified by serial dilution titration. The age-associated differential cardiac binding capacity of a candidate phage clone, ψR3Y32 was confirmed using methods described in Cai et al. (2004).
Individual injection of ψR3Y32 confirmed 10-fold higher levels of ψR3Y32 binding in young compared to old murine hearts (FIG. 3A).

Setting [7] is: 3 hours of incubation, substrate 10 μg/ml.
The mark [8] stands for this setting: after 3 h of culture, substrate 10 μg/ml.

Ends that are not written are not given here.

Consider “PDGF-AB: platelet derived growth factor AB heterodimer ligand”, for which the “time of peak upregulation of tenascin-C mRNA” value in assay [1] (RT-PCR, cardiac endothelial cells cultured with exogenous PDGF ligand) is 6 h. Moreover, the “tenascin-C mRNA expression in cardiac endothelial cells after treatment” value in assay [1] (real-time PCR, cultured rat cardiac endothelial cells, n=2 per group) was “increased”. Further, the “tenascin-C expression in heart sections after treatment” value in assay [2] is on record as “increases tenascin-C expression”.

collagen [reference compound]: the “cell attachment and morphology” value in assay [3] (setting [7]) was “attached well and were beginning to spread”. The “cells attached to the substrate” value in assay [3] (setting [8]) amounted to 99%. The “cells that failed to attach to the substrate” value in assay [3] (substrate 10 μg/ml) stood at 16.9%. Also, in assay [4], the “increase of peak migration distance in response to PDGF compared to absence of growth factors” value came to 51.4% and the “increase of peak migration distance in response to VEGF compared to absence of growth factors” value came out at 63.3%.

With “tenascin-C: hexameric extracellular matrix glycoprotein, used as coating substrate for cardiac endothelial cells”, the “cell attachment and morphology” value in assay [3] (setting [7]) was “rounded and poorly attached”; in assay [3] (24 hours of culture, substrate 10 μg/ml) it was “well attached and spread and formed a typical endothelial monolayer”; in assay [3] (24 hr, substrate 100 μg/ml), “formed multi-layered cell clusters”. The “cells that fail to adhere” value in assay [3] (setting [8]) was “approximately 10%”. In assay [3] (substrate 10 μg/ml), the “cells that failed to attach to the substrate” value came to 86.9%. In addition, the “increase of peak migration distance in response to PDGF compared to absence of growth factors” value in assay [4] stood at 64.3%. In addition, in assay [4], the “increase of peak migration distance in response to VEGF compared to absence of growth factors” value amounted to 91.6%.

On to “ψR3Y32: phage clone from in vivo biopanning displaying a cyclically constrained peptide with core motif STISHN (SEQ ID NO:1), homologous to alpha-8 integrin (also: displayed on phage, cyclically constrained; listed as Homo sapiens)”, for which the “binding of phage to vessels within the heart (pIII immunostaining)” value in assay [5] is recorded as “confirmed the binding of ψR3Y32 to vessels within the heart”. The “levels of phage binding in young compared to old murine hearts” value in assay [6] amounted to 10 fold.

The values are drawn from patent publication US20060172943A1, “Restoring vascular function” (priority 2003, published 2006).
